Measured values from patent publication US20240043470A1, “MACROCYCLIC COMPOUNDS AS PROTEASOME INHIBITORS” (CORNELL UNIVERSITY, priority 2017, published 2024).

Experiments:
[1] = biological target: β5i of hu i-20S (Homo sapiens (Human), UniProt P20618+P28062); assay: IC50 determination against β5i of human immunoproteasome (Ac-ANW-AMC hydrolysis); assay type: biochemical; conditions: β5i, 0.4 nM i-20S, 15 μM Ac-ANW-AMC;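 also: enzyme activity taken as the initial reaction velocity per well, with SDS added to activate the proteasome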
[2] = biological target: β5c of hu c-20S (Homo sapiens (Human), UniProt P20618+P28074); assay: IC50 determination against β5c of human constitutive proteasome (suc-LLVY-AMC hydrolysis); assay type: biochemical; conditions: 0.2 nM c-20S, 25 μM suc-LLVY-AMC;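 also: IC50 obtained by fitting initial reaction velocities to a dose-dependent inhibition model, with SDS present as proteasome activator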

| Structure (SMILES) | IC50 [1] [µM] | IC50 [2] [µM] |
| --- | --- | --- |
| Cn1cc(CNC(=O)[C@@H]2Cc3cccc(c3)Oc3cccc(c3)C[C@H](NS(C)(=O)=O)C(=O)N[C@@H](CCc3ccccc3)C(=O)N2)cn1 [Compound 1-04, (5S,8S,11S)—N-((1-Methyl-1H-pyrazol-4-yl)methyl)-11-(methylsulfonamido)-7,10-dioxo-8-phenethyl-2-oxa-6,9-diaza-1,3(1,3)-dibenzenacyclododecaphane-5-carboxamide] | 7.22 | > 100 |
| Cn1cc(CNC(=O)[C@@H]2Cc3cccc(c3)Oc3cccc(c3)C[C@H](NC(=O)CO)C(=O)N[C@@H](CCc3ccccc3)C(=O)N2)cn1 [Compound 1-05] | 14.8 | > 100 |
| CCN(CC)[C@H]1Cc2cccc(c2)Oc2cccc(c2)C[C@@H](C(=O)NCc2ccccc2)NC(=O)[C@H](CCc2ccccc2)NC1=O [Compound 1-16] | 100 | 22.9 |
| O=C(NCc1ccccc1)[C@@H]1Cc2cccc(c2)Oc2cccc(c2)C[C@H](N2CCCC2)C(=O)N[C@@H](CCc2ccccc2)C(=O)N1 [Compound 1-17] | 6.6 | 42.5 |
| CC(C)(C)NC(=O)[C@@H]1Cc2cccc(c2)Oc2cccc(c2)C[C@H](NS(C)(=O)=O)C(=O)N[C@@H](CCc2ccccc2)C(=O)N1 [Compound 1-37] | > 100 | 3.6 |
| CC(C)(C)OC(=O)N[C@H]1Cc2cccc(c2)Oc2cccc(c2)C[C@@H](C(=O)OCc2ccccc2)NC(=O)[C@H](CCc2ccccc2)NC1=O [Compound 1-50, Benzyl-(S,8S,11S)-11-((tert-butoxycarbonyl)amino)-7,10-dioxo-8-phenethyl-2-oxa-6,9-diaza-1,3(1,3)-dibenzenacyclododecaphane-5-carboxylate] | > 100 | > 100 |
| CN1CCN(C(=O)[C@@H]2Cc3cccc(c3)Oc3cccc(c3)C[C@H](NC(=O)c3ccccn3)C(=O)N[C@@H](CCc3ccccc3)C(=O)N2)CC1 [Compound 1-52] | 33.9 | 30.7 |
| O=C(N[C@H]1Cc2cccc(c2)Oc2cccc(c2)C[C@@H](C(=O)NCC(F)(F)F)NC(=O)[C@H](CCc2ccccc2)NC1=O)C1CC1 [Compound 1-54, (5S,8S,11S)-11-(Cyclopropanecarboxamido)-7,10-dioxo-8-phenethyl-N-(2,2,2-trifluoroethyl)-2-oxa-6,9-diaza-1,3(1,3)-dibenzenacyclododecaphane-5-carboxamide] | > 100 | > 100 |
| O=C(CC(F)(F)F)N[C@H]1Cc2cccc(c2)Oc2cccc(c2)C[C@@H](C(=O)NCC(F)(F)F)NC(=O)[C@H](CCc2ccccc2)NC1=O [Compound 1-55, (5S,8S,11S)-7,10-Dioxo-8-phenethyl-N-(2,2,2-trifluoroethyl)-11-(3,3,3-trifluoropropanamido)-2-oxa-6,9-diaza-1,3(1,3)-dibenzenacyclododecaphane-5-carboxamide] | > 100 | > 100 |
| CN(C)[C@H]1Cc2cccc(c2)Oc2cccc(c2)C[C@@H](C(=O)NCC(F)(F)F)NC(=O)[C@H](CCc2ccccc2)NC1=O [Compound 1-57, (5S,8S,11S)-11-(Dimethylamino)-7,10-dioxo-8-phenethyl-N-(2,2,2-trifluoroethyl)-2-oxa-6,9-diaza-1,3(1,3)-dibenzenacyclododecaphane-5-carboxamide] | 18.7 | 1.1 |
| CN1C(=O)[C@@H](N2CCCC2=O)Cc2cccc(c2)Oc2cccc(c2)C[C@@H](C(=O)NCC(F)(F)F)NC(=O)[C@@H]1CCc1ccccc1 [Compound 1-64] | 2.72 | > 100 |
| Cc1ccc(CNC(=O)[C@@H]2Cc3cccc(c3)Oc3cccc(c3)C[C@H](NC(=O)OC(C)(C)C)C(=O)N[C@@H](CCc3ccccc3)C(=O)N2)cc1 [Compound 1-68, tert-Butyl-((5S,8S,11S)-5-((4-methylbenzyl)carbamoyl)-7,10-dioxo-8-phenethyl-2-oxa-6,9-diaza-1,3(1,3)-dibenzenacyclododecaphane-11-yl)carbamate] | > 100 | 17.9 |
| COC1(CNC(=O)[C@@H]2Cc3cccc(c3)Oc3cccc(c3)CCC(=O)N[C@@H](CCN3CCOCC3)C(=O)N2)CC1 [Compound 1-90] | > 100 | 68.1 |
| O=C1CCc2cccc(c2)Oc2ccc(cc2)C[C@@H](C(=O)NCc2ccccc2F)NC(=O)[C@H](CC(=O)N2CCCC2)N1 [Compound 2-01-B, (5S,8S)—N-(2-Fluorobenzyl)-7,10-dioxo-8-(2-oxo-2-(pyrrolidin-1-yl)ethyl)-2-oxa-6,9-diaza-1(1,3),3(1,4)-dibenzenacyclododecaphane-5-carboxamide] | 0.845 | 75.4 |
| O=C1CCc2cccc(c2)Oc2ccc(cc2)C[C@@H](C(=O)NCc2ccccc2F)NC(=O)[C@H](CC(=O)N2CCC[C@@H]2c2ccccc2)N1 [Compound 2-02-B, (5S,8S)—N-(2-Fluorobenzyl)-7,10-dioxo-8-(2-oxo-2-((R)-2-phenylpyrrolidin-1-yl)ethyl)-2-oxa-6,9-diaza-1(1,3),3(1,4)-dibenzenacyclododecaphane-5-carboxamide] | 6.75 | > 100 |
| O=C1CCc2cccc(c2)Oc2ccc(cc2)CC(C(=O)NCc2cccc3ccccc23)NC(=O)C(CC(=O)N2CCCC2)N1 (centres unmarked) [Compound 2-03-B, N-(Naphthalen-1-ylmethyl)-7,10-dioxo-8-(2-oxo-2-(pyrrolidin-1-yl)ethyl)-2-oxa-6,9-diaza-1(1,3),3(1,4)-dibenzenacyclododecaphane-5-carboxamide] | 0.96 | > 100 |
| CC(=O)N[C@H]1Cc2cccc(c2)OC/C=C/C[C@@H](C(=O)NCC(F)(F)F)NC(=O)[C@H](CCc2ccccc2)NC1=O [Compound 3-01, (7S,10S,13S,E)-13-Acetamido-9,12-dioxo-10-phenethyl-N-(2,2,2-trifluoroethyl)-2-oxa-8,11-diaza-1(1,3)-benzenacyclotetradecaphan-4-ene-7-carboxamide] | 15.6 | 0.78 |
| CC(=O)N[C@H]1Cc2cccc(c2)OCCCC[C@@H](C(=O)NCC(F)(F)F)NC(=O)[C@H](CCc2ccccc2)NC1=O [Compound 3-02, (3S,6S,9S)-3-Acetamido-4,7-dioxo-6-(2-phenylethyl)-N-(2,2,2-trifluoroethyl)-14-oxa-5,8-diazabicyclo[13.3.1]nonadeca-1(19),15,17-triene-9-carboxamide] | 5.88 | 0.433 |
| COC(=O)C1COCCOc2cccc(c2)CCC(=O)NC(CCc2ccccc2)C(=O)N1 [Compound 3-05, Methyl-(7S,10S)-9,12-dioxo-10-phenethyl-2,5-dioxa-8,11-diaza-1(1,3)-benzenacyclotetradecaphane-7-carboxylate] | > 10 | 23.1 |
| O=C(NCc1ncco1)[C@@H]1CCCCOc2cccc(c2)C[C@H](N2CCCC2=O)C(=O)N[C@@H](CCc2ccccc2)C(=O)N1 [Compound 3-16] | 82 | 31.9 |
| O=C1CCc2cccc(c2)OCCCC[C@@H](C(=O)NCc2ccccc2F)NC(=O)[C@H](CCN2CCOCC2)N1 [Compound 3-26] | 3.5 | 3.4 |
| CN(C)[C@H]1Cc2cccc(c2)OCCCC[C@@H](C(=O)NC2CCCC2)NC(=O)[C@H](CCc2ccc(F)cc2)NC1=O [Compound 3-36] | > 100 | 9.5 |
